According to patent publication US6506758B2, “Indole derivatives useful A.O. for the treatment of osteoporosis” (SmithKline Beecham Laboratoires Pharmceutiques, priority 1997, dated 2003):

Columns and labels:
[1] = biological target: bafilomycin-sensitive ATPase of chicken osteoclast; experiment: Inhibition of bafilomycin-sensitive ATPase activity in purified chicken osteoclast membrane vesicles (Pi release); format: biochemical; conditions: membrane source not given, chicken osteoclast assumed
Method: Preparation of Crude Bone Microsomes from Calcium-starved Egg-laying Hens
Vesicles were prepared from medullar bone obtained from tibiae and femurs or egg-laying hens which were calcium-starved for at least 15 days. Briefly, bone fragments were scraped with a 24 scalpel blade, suspended in 40 ml of isolation medium (0.2 M sucrose, 50 mM KCl, 10 mM Hepes, 1 mM EGTA, 2 mM dithiotheitrol, pH 7.4) and filtered through a 100 μm pore size nylon mesh. The whole procedure was performed at 4° C. After homogenisation in a potter (20 strokes) in 40 ml of isolation medium an initial centrifugation (6,500×gmax×20 min) was performed to remove mitochondria and lysosomes. The supernatant was centrifuged at 100,000×gmax for 1 hr and the pellet was collected in 1 ml of isolation medium, divided into 200 μl aliquots, immediately frozen in liquid nitrogen and stored at −80° C. The protein content was determined using a Biorad colourimetric kit according to Bradford [M. Bradford, Anal. Biochem., 72, 248 (1976)]. For the proton transport assay, 5-10 μl of membranes were used.
Purification of osteoclast membranes. 1 ml of crude microsomal vesicles prepared above were applied (about 0.2 ml per tube ) on the top of a sucrose step-gradient consisting of 3.5 ml of 15%, 30% and 45% (w/w) sucrose in isolation medium and centrifuged at 280,000 gmax for 2 h (SW 41 Ti rotor). After centrifugation the 30-45% sucrose interfaces were collected, diluted approx. 20-fold in isolation medium and pelletted at 100,000 gmax for 1 hour (SW 28 rotor). […]
Inhibition of bafilomycin-sensitive ATPase activity was assessed in purified membrane vesicles by measuring the release of inorganic phosphate (Pi) during 30 min of incubation at 37° C. in a 96-well plate either in the presence or in the absence of bafilomycin A1. […] Absorbance at 650 nm was measured after 2 min using a microplate reader. Results are expressed as nmol (Pi)×mg protein^−1×min^−1 and, for each experiment, represent the mean±sem of triplicates.

[2] = biological target: bafilomycin-sensitive ATPase in human kidney membranes; experiment: Inhibition of bafilomycin-sensitive ATPase in human kidney membranes; format: biochemical; conditions: read-out: IC50 h kidney
Method: Human kidney membranes were obtained from the cortex of a human kidney, frozen immediately after surgery, according to the method reported in the literature for bovine kidney (S. Gluck, J Biol. Chem., 265, 21957 (1990)).
Inhibition of bafilomycin-sensitive ATPase activity was assessed in purified membrane vesicles by measuring the release of inorganic phosphate (Pi) during 30 min of incubation at 37° C. in a 96-well plate either in the presence or in the absence of bafilomycin A1. The reaction medium contained 1 mM ATP, 10 mM HEPES-Tris pH 8, 50 mM KCl, 5 uM valinomycin, 5 uM nigericin, 1 mM CDTA-Tris,100 uM ammonium molybdate, 0.2 M sucrose and membranes (20 ug protein/ml). The reaction was initiated by MgSO4 (8-arm pipette) and stopped, after 30 min, by addition of 4 volumes of the malachite green reagent (96-arm pipette) prepared according to Chan [Anal. Biochem. 157, 375 (1986)]. Absorbance at 650 nm was measured after 2 min using a microplate reader. Results are expressed as nmol (Pi)×mg protein^−1×min^−1 and, for each experiment, represent the mean±sem of triplicates.

IC50 [1] [µM]	melting point [°C]	IC50 [2] [nM]	Compound
1.3			COc1cc(-c2cc3cc(Cl)c(Cl)cc3[nH]2)ccc1C(=O)NC1CC(C)(C)N(C)C(C)(C)C1 [Example 3, 4-(5,6-Dichloro-1H-indol-2-yl)-2-methoxy-N-(1,2,2,6,6-pentamethylpiperidin-4-yl)-benzamide]
	204		CN(C)CCCNC(=O)c1cccc(-c2cc3cc(Cl)c(Cl)cc3[nH]2)c1 [Example 5, 3-(5,6-Dichloro-1H-indol-2-yl)-N-(3-dimethylaminopropyl)benzamide]
0.096		200	COc1cc(C(=O)NC2CC(C)(C)N(C)C(C)(C)C2)ccc1-c1cc2cc(Cl)c(Cl)cc2[nH]1 [Example 2, 4-(5,6-Dichloro-1H-indol-2-yl)-3-methoxy-N-(1,2,2,6,6-pentamethylpiperidin-4yl)-benzamide]
0.35		1250	CN1C(C)(C)CC(NC(=O)c2ccc(-c3cc4cc(Cl)c(Cl)cc4[nH]3)cc2)CC1(C)C [Example 1, 4-(5,6-Dichloro-1H-indol-2-yl)-N-(1,2,2,6,6-pentamethypiperidin-4-yl)benzamide]
